The text below walks through data of ChEMBL document CHEMBL2094269, “WEHI/Eskitis Trypanosoma b. brucei screening data”.

One may read the IC50 as the concentration that gives 50% inhibition. Read a low IC50 as greater potency in that assay.

Structures are written as SMILES. Several values for one entry are separate records, joined by “and”; a condition that tells them apart may be missing. Equal values may be shown once.

Data set [1] can be described thus: DNDI: Cytotoxicity against human MRC-5 lung fibroblast cells. The conditions noted are these: IC50.
The subject of data set [2] is Trypanosoma brucei brucei. In words: microbe, parasite or virus in culture. Type of data set: functional, organism-based, STIB 795.
Description: DNDI: Inhibition of Human African Trypanosomiasis (HAT), STIB 795, in vitro

For `CN(C)CCCNc1nc(-c2ccc(Cl)cc2)nc2ccccc12`, the half-maximal inhibitory concentration (IC50) was greater than 20.8 µM in data set [1] and 3.74 µM in data set [2] (Trypanosoma brucei, STIB 795).
For `Cc1conc1NC(c1cccs1)c1ccc2cccnc2c1O` (stereo not drawn), in that order: greater than 20.8 µM and 5.74 µM.
For the compound `COc1ccc(-c2cc(-c3ccccc3)c(C#N)c([S+](C)[O-])n2)cc1` (stereo not drawn), the IC50 in data set [1] was greater than 41.7 µM; in data set [2] (Trypanosoma brucei, STIB 795), 0.206 µM.
The like results for `CN1CCc2nc3sc(C(=O)c4ccc(F)cc4)c(N)c3cc2C1` were, in that order, greater than 41.7 µM and 6.35 µM.
For `COc1ccc2[nH]c(C)c(CCNCc3cn(C)c4ccccc34)c2c1`, in that order: greater than 20.8 µM and 4.74 µM.
The like results for `Cc1ccccc1Cn1c(=N)n(CC(O)c2ccco2)c2ccccc21` (stereo not drawn) were, in that order, greater than 20.8 µM and 5.25 µM.
As to `COc1ccc(-c2cc3ccccc3n2CC(O)CNCCO)cc1` (stereo not drawn), the 50% inhibitory concentration (IC50) in data set [1] was greater than 20.8 µM; in data set [2] (Trypanosoma brucei, STIB 795) it was 5.17 µM.
The like results for `N=c1n(CCc2ccccc2)c2ccccc2n1Cc1ccccc1F` were, in that order, greater than 20.8 µM and 5.49 µM.
The like results for `COC(=O)c1nc(-c2ccccc2)nc(-c2ccccc2)c1C(=O)OC` were, in that order, greater than 4.17 µM and 4.78 µM.
For the compound `NCCNCCOC(c1ccc(Cl)cc1)c1ccc(Cl)cc1`, the IC50 is 5.61 µM in data set [1] and 0.239 µM in data set [2] (Trypanosoma brucei, STIB 795).
The like results for `CCc1nnc(NC(=O)c2cc3ccc4ccc(C)nc4c3[nH]2)s1` were, in that order, greater than 41.7 µM and 0.494 µM.
Consider `C=CCn1c(=N)n(CC(O)COc2ccccc2C)c2ccccc21` (stereo not drawn), for which the IC50 in data set [1] was greater than 20.8 µM; in data set [2] (Trypanosoma brucei, STIB 795) it was 0.72 µM.
Turning to `CCCC(=O)NC(c1cccc(F)c1)c1ccc2cccnc2c1O` (stereo not drawn), the concentration for half-maximal inhibition (IC50) in data set [1] was greater than 20.8 µM; in data set [2] (Trypanosoma brucei, STIB 795) it was 7.07 µM.
The like results for `CC(C)NCC(O)CNc1cccc2c1C(=O)c1ccccc1C2=O` (stereo not drawn) were, in that order, greater than 4.17 µM and 3.42 µM.
For `O=C1CC(n2nnn(-c3ccccc3Cl)c2=S)C2COC1O2` (stereo not drawn), in that order: greater than 41.7 µM and 4.6 µM.
For `O=S1(=O)CCC(N2COc3c(cc(Cl)c4cccnc34)C2)C1` (stereo not drawn), in that order: greater than 4.17 µM and 5.09 µM.
Take `CN1C/C(=C/c2ccc(C#N)cc2)C(=O)/C(=C/c2ccc(C#N)cc2)C1`: the IC50 in data set [1] was greater than 20.8 µM; in data set [2] (Trypanosoma brucei, STIB 795), 0.366 µM.
Turning to `CC(C)c1ccc(OCc2ccc(C(=O)NCCN(C)C)cc2)cc1`, the half-inhibitory concentration (IC50) is greater than 20.8 µM in data set [1] and 5.86 µM in data set [2] (Trypanosoma brucei, STIB 795).
For `Clc1cccc(CNC2=Nc3ccccc3NC23CCNCC3)c1`, in that order: 9.14 µM and 1.2 µM.
Regarding `Cc1ncc(CO)c(/C=N/NC(=O)c2ccc(C(C)(C)C)cc2)c1O`, the IC50 was 6.25 µM in data set [1] and 4.26 µM in data set [2] (Trypanosoma brucei, STIB 795).
The like results for `CC(C)NCC(O)COc1cccc2c(=O)c3ccccc3sc12` (stereo not drawn) were, in that order, greater than 20.8 µM and 5.46 µM.
The like results for `c1ccc(Cn2s/c(=N\c3ccccc3)nc2-c2ccccc2)cc1` were, in that order, greater than 20.8 µM and 1.38 µM.
The like results for `CN(/C=C/C=C/C=C/C1=[N+](C)c2ccccc2C1(C)C)c1ccccc1` were, in that order, greater than 20.8 µM and 1.97 µM.
On to `Clc1ccc(C[n+]2cc(-c3ccccc3)n3c2CCC3)c(Cl)c1`, for which the IC50 is greater than 41.7 µM in data set [1] and 5.23 µM in data set [2] (Trypanosoma brucei, STIB 795).
For `COc1ccccc1C/C(N)=N/OC(=O)c1ccc(OC)c(OC)c1`, in that order: greater than 4.17 µM and 0.558 µM.
For `COc1cc(C(=O)N/N=C(/C)c2ccccc2O)cc(OC)c1OC`, in that order: greater than 4.17 µM and 4.45 µM.
For `CC(=O)O[C@H]1CCC2C3CCC4=CC(=O)CC[C@]4(C)C3C(=O)C[C@@]21C` (stereo partly drawn), in that order: 6.4 µM and 0.39 µM.
With `CN1CCN(C2Cc3ccc(F)cc3Sc3ccc(O)cc32)CC1` (stereo not drawn), the IC50 in data set [1] was greater than 41.7 µM; in data set [2] (Trypanosoma brucei, STIB 795), 2.61 µM.
For the compound `O=C(c1ccc(F)cc1)C(CSc1ccc(F)cc1)n1cncn1` (stereo not drawn), the IC50 in data set [1] is greater than 41.7 µM; in data set [2] (Trypanosoma brucei, STIB 795), 4.92 µM.
For `Cc1cc(C)nc(NC(c2ccco2)c2ccc3cccnc3c2O)n1` (stereo not drawn), in that order: greater than 41.7 µM and 5.39 µM.
In the case of `CCCOc1ccc(C(=O)Nc2ccc(Cc3ccncc3)cc2)cc1`, the IC50 in data set [1] came to 4.61 µM; in data set [2] (Trypanosoma brucei, STIB 795) it was 1.23 µM.
The like results for `O=C(CN1CCN(c2ccc(Cl)cc2)CC1)c1ccc(O)c(O)c1` were, in that order, greater than 41.7 µM and 3.04 µM.
In the case of `O=C(CC(SCc1ccco1)c1ccc(Cl)cc1)c1ccco1` (stereo not drawn), the IC50 is greater than 41.7 µM in data set [1]; 5.16 µM and > 10.4 µM in data set [2].
As for `CC1(C)CC(NC2=C(Cl)C(=O)c3ccccc3C2=O)CC(C)(C)N1`, the IC50 in data set [1] is 5.07 µM; in data set [2] (Trypanosoma brucei, STIB 795), 1.79 µM.
For `CN(C)CCCNc1nn2c(=O)c3ccccc3nc2c2ccccc12`, in that order: greater than 4.17 µM and 5.39 µM.
For `CCCCc1ccc(NC(=S)NC2CC(C)(C)NC(C)(C)C2)cc1`, in that order: greater than 20.8 µM and 2.74 µM.
For `CN(C)CCCC1c2ccccc2Sc2ccc(Cl)cc2C1O` (stereo not drawn), in that order: greater than 20.8 µM and 5.87 µM.
With `O=C(CSc1cccc2cccnc12)c1ccc(Cl)cc1Cl`, the concentration for half-maximal inhibition (IC50) in data set [1] was greater than 41.7 µM; in data set [2] (Trypanosoma brucei, STIB 795), 1.4 µM.
For `O=C(NCCc1nc(-c2ccccc2)cs1)C1(c2ccccc2)CC1`, the half-inhibitory concentration (IC50) in data set [1] is greater than 41.7 µM; in data set [2], 4.88 µM; in data set [2] (Trypanosoma brucei, STIB 795), 5.81 µM.
On to `COc1ccc(C(=O)O/N=C(\N)Cc2ccc(Cl)cc2)c(OC)c1`, for which the IC50 was greater than 20.8 µM in data set [1] and 0.104 µM in data set [2] (Trypanosoma brucei, STIB 795).
The like results for `CCOC(=O)C1CCCN(Cc2cc(Cl)c3cccnc3c2O)C1` (stereo not drawn) were, in that order, greater than 4.17 µM and 5.09 µM.
The like results for `CC1(C)CC(=O)C/C(=N\NC(=O)c2sc3ccccc3c2Cl)C1` were, in that order, greater than 41.7 µM and 2.2 µM.
Regarding `COC(=O)c1ccccc1OCCCON1C(N)=NC(N)=NC1(C)C`, the IC50 in data set [1] was greater than 0.42 µM; in data set [2] (Trypanosoma brucei, STIB 795), 0.351 µM.
In the case of `C=CCn1c(-c2cccs2)nn(C2CC(=O)C3OCC2O3)c1=S` (stereo not drawn), the IC50 in data set [1] was greater than 20.8 µM; in data set [2], 4.4 µM; in data set [2] (Trypanosoma brucei, STIB 795), 4.75 µM.
For `CCN(CC)c1ccc(/C=N/NC(=O)c2nn(C)cc2Cl)c(O)c1`, the IC50 is greater than 41.7 µM in data set [1] and 1.44 µM in data set [2] (Trypanosoma brucei, STIB 795).
The like results for `Clc1ccc(C(OCC2CCCCN2)c2ccc(Cl)cc2)cc1` (stereo not drawn) were, in that order, greater than 4.17 µM and 2.78 µM.
The like results for `Cc1nc2sccn2c1C(=O)N/N=C/c1c(O)ccc2ccccc12` were, in that order, greater than 4.17 µM and 1.53 µM.
Turning to `CCOc1ccc(C2=CC(C(C(C)=O)C(C)=O)c3ccccc3O2)cc1` (stereo not drawn), the half-maximal inhibitory concentration (IC50) in data set [1] is greater than 41.7 µM; in data set [2] (Trypanosoma brucei, STIB 795) it was 4.42 µM.
The like results for `COc1cc2nc(NC3CCCc4ccccc43)nc(N)c2cc1OC` (stereo not drawn) were, in that order, greater than 4.17 µM and 4.75 µM.
The like results for `CCC1CCCCN1S(=O)(=O)c1ccc(-c2ccno2)cc1OC` (stereo not drawn) were, in that order, greater than 41.7 µM and 2.73 µM.
`CC(=O)NC1=C(Br)C(=O)c2cccc(NC(C)=O)c2C1=O`: the half-inhibitory concentration (IC50) in data set [1] was 7.49 µM; in data set [2] (Trypanosoma brucei, STIB 795), 1.15 µM.
Consider `Oc1c(C(Nc2nccs2)c2ccc(F)cc2)ccc2cccnc12` (stereo not drawn), for which the IC50 in data set [1] was greater than 20.8 µM; in data set [2], 2.37 µM and > 10.4 µM.
Take `NC1=NC(CCc2ccccc2)N(OCCCc2ccccc2)C(N)=N1` (stereo not drawn): the IC50 in data set [1] is greater than 4.17 µM; in data set [2] (Trypanosoma brucei, STIB 795), no more than 2.78 µM.
